Patent US20210395239A1 (Hoffmann-La Roche Inc., priority 2018, published 2021)

Biological target: T1, hTLR9 (Homo sapiens, UniProt Q9NR96)
T1 sequence (Q9NR96 26-1032): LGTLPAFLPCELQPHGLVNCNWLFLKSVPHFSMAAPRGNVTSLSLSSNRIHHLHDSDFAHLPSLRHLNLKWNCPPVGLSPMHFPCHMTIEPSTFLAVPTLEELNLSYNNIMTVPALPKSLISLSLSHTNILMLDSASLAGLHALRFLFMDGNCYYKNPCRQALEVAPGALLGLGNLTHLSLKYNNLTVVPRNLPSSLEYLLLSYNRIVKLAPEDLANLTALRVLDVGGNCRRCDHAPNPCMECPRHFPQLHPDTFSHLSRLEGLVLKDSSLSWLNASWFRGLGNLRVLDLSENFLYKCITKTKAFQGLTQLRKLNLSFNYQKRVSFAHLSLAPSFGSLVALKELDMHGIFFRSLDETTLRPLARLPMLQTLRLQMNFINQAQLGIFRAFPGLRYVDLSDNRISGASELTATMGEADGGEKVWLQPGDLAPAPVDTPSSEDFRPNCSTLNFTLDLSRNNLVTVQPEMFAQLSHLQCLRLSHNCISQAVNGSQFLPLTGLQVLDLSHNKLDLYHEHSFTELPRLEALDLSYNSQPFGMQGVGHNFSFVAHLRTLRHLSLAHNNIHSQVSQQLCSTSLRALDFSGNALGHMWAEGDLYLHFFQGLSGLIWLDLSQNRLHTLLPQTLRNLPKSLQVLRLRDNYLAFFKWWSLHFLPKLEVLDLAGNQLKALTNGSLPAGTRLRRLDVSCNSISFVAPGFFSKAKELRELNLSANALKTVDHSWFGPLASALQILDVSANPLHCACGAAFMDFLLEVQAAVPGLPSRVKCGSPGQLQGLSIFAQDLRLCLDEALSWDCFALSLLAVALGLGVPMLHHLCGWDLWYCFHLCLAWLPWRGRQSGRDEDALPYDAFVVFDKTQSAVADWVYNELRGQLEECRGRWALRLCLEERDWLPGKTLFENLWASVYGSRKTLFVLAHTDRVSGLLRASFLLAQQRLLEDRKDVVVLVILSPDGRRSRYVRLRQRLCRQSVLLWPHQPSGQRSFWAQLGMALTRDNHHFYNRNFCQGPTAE
Test: HEK293-Blue-hTLR-9 cells assay (SEAP reporter, ODN2006 stimulation)
Assay type: cell-based
Design: host or cells: HEK293 (HEK-Blue hTLR9)
Conditions: HEK293-Blue-hTLR9 cells, ODN2006, 20 hrs; read-out: HEK/hTLR9 IC50
From the text: HEK293-Blue-hTLR-9 Cells Assay:
A stable HEK293-Blue-hTLR-9 cell line was purchased from InvivoGen (Cat. #: hkb-htlr9, San Diego, Calif., USA). These cells were originally designed for studying the stimulation of human TLR9 by monitoring the activation of NF-κB. A SEAP (secreted embryonic alkaline phosphatase) reporter gene was placed under the control of the IFN-β minimal promoter fused to five NF-κB and AP-1-binding sites. The SEAP was induced by activating NF-κB and AP-1 via stimulating HEK-Blue hTLR9 cells with TLR9 ligands. Therefore the reporter expression was declined by TLR9 antagonist under the stimulation of a ligand, such as ODN2006 (Cat. #: tlrl-2006-1, Invivogen, San Diego, Calif., USA), for incubation of 20 hrs. The cell culture supernatant SEAP reporter activity was determined using QUANTI-Blue™ kit (Cat. #: rep-qb1, Invivogen, San Diego, Calif., USA) at a wavelength of 640 nm, a detection medium that turns purple or blue in the presence of alkaline phosphatase.
HEK293-Blue-hTLR9 cells were incubated at a density of 250,000˜450,000 cells/mL in a volume of 170 μL in a 96-well plate in Dulbecco's Modified Eagle's medium (DMEM) containing 4.5 g/L glucose, 50 U/mL penicillin, […], 2 mM L-glutamine, 10% (v/v) heat-inactivated fetal bovine serum with addition of 20 μL test compound in a serial dilution in the presence of final DMSO at 1% and 10 μL of 20 uM ODN2006 in above DMEM, perform incubation under 37° C. in a CO2 incubator for 20 hrs. Then 20 μL of the supernatant from each well was incubated with 180 μL Quanti-blue substrate solution at 37° C. for 2 h and the absorbance was read at 620-655 nm using a spectrophotometer. The signaling pathway that TLR9 activation leads to downstream NF-κB activation has been widely accepted, and therefore similar reporter assay was modified for evaluating TLR9 antagonist.

| Compound | IC50 |
| --- | --- |
| [2H]c1ccc2c(N3C[C@H](CN4CCN(c5ccc(N6C[C@H]7C[C@@H]6CN7)nc5)CC4)O[C@H](C)C3)ccc(C#N)c2n1 [Example 153, 2-deuterio-5-[(2S,6R)-2-[[4-[6-[(1R,4R)-2,5-diazabicyclo[2.2.1]heptan-2-yl]-3-pyridyl]piperazin-1-yl]methyl]-6-methyl-morpholin-4-yl]quinoline-8-carbonitrile] | 113 nM |
| [2H]c1ccc2c(N3C[C@H](CN4CCN(c5ccc(N6C[C@H](N)[C@@H](F)C6)nc5)CC4)O[C@H](C)C3)ccc(C#N)c2n1 [Example 150, 5-[(2S,6R)-2-[[4-[6-[(3S,4S)-3-amino-4-fluoro-pyrrolidin-1-yl]-3-pyridyl]piperazin-1-yl]methyl]-6-methyl-morpholin-4-yl]-2-deuterio-quinoline-8-carbonitrile] | 175 nM |
| [2H]c1ccc2c(N3C[C@H](CN4CCN(c5ccc(N6C[C@@H](N)[C@H](OC)C6)nc5)CC4)O[C@H](C)C3)ccc(C#N)c2n1 [Example 143, 5-[(2S,6R)-2-[[4-[6-[(3R,4R)-3-amino-4-methoxy-pyrrolidin-1-yl]-3-pyridyl]piperazin-1-yl]methyl]-6-methyl-morpholin-4-yl]-2-deuterio-quinoline-8-carbonitrile] | 47 nM |
| C[C@@H]1CN(c2ccc(C#N)c3ncccc23)C[C@H](CN2CCN(c3ccnc(N4C[C@@H](F)[C@@H](N)C4)n3)CC2)O1 [Example 95, 5-[(2S,6R)-2-[[4-[2-[(3S,4R)-3-amino-4-fluoro-pyrrolidin-1-yl]pyrimidin-4-yl]piperazin-1-yl]methyl]-6-methyl-morpholin-4-yl]quinoline-8-carbonitrile] | 31 nM |
| C[C@@H]1CN(c2ccc(C#N)c3ncccc23)C[C@H](CN2CCN(c3ccnc(N4C[C@@H](N)[C@H](F)C4)n3)CC2)O1 [Example 96, 5-[(2S,6R)-2-[[4-[2-[(3R,4R)-3-amino-4-fluoro-pyrrolidin-1-yl]pyrimidin-4-yl]piperazin-1-yl]methyl]-6-methyl-morpholin-4-yl]quinoline-8-carbonitrile] | 109 nM |
| [2H]c1ccc2c(N3C[C@H](CN4CC(c5ccc(N6CC(C)(N)C6)cc5)C4)O[C@H](C)C3)ccc(C#N)c2n1 [Example 141, 5-[(2S,6R)-2-[[3-[4-(3-amino-3-methyl-azetidin-1-yl)phenyl]azetidin-1-yl]methyl]-6-methyl-morpholin-4-yl]-2-deuterio-quinoline-8-carbonitrile] | 44 nM |
| [2H]c1ccc2c(N3C[C@H](CN4CCN(c5ccc(N6CC(C)(N)C6)nc5)CC4)O[C@H](C)C3)ccc(C#N)c2n1 [Example 132, 5-[(2S,6R)-2-[[4-[6-(3-amino-3-methyl-azetidin-1-yl)-3-pyridyl]piperazin-1-yl]methyl]-6-methyl-morpholin-4-yl]-2-deuterio-quinoline-8-carbonitrile] | 140 nM |
| Cc1ccc(N2C[C@H](CN3CCN(c4ccnc(N5CC6(CNCCO6)C5)n4)CC3)O[C@H](C)C2)c2nccnc12 [Example 126, 2-[4-[4-[[(2S,6R)-6-methyl-4-(8-methylquinoxalin-5-yl)morpholin-2-yl]methyl]piperazin-1-yl]pyrimidin-2-yl]-5-oxa-2,8-diazaspiro[3.5]nonane] | 146 nM |
| CO[C@@H]1CN(c2ccc(C3CN(C[C@H]4CN(c5ccc(C#N)n6ncc(F)c56)C[C@@H](C)O4)C3)cn2)C[C@H]1N [Example 164, 4-[(2S,6R)-2-[[3-[6-[(3R,4R)-3-amino-4-methoxy-pyrrolidin-1-yl]-3-pyridyl]azetidin-1-yl]methyl]-6-methyl-morpholin-4-yl]-3-fluoro-pyrazolo[1,5-a]pyridine-7-carbonitrile] | 86 nM |
| COC1CN(c2nccc(N3CCN(C[C@H]4CN(c5ccc(C#N)c6ncccc56)C[C@@H](C)O4)CC3)n2)CC1N (stereo in doubt) [Example 93, 5-[(2S,6R)-2-[[4-[2-[(3R,4S)-3-amino-4-methoxy-pyrrolidin-1-yl]pyrimidin-4-yl]piperazin-1-yl]methyl]-6-methyl-morpholin-4-yl]quinoline-8-carbonitrile] | 31 nM |
| Cc1cnc(N2CCN(C[C@H]3CN(c4ccc(C#N)c5ncccc45)C[C@@H](C)O3)CC2)nc1N1CCNCC1 [Example 102, 5-[(2R,6S)-2-methyl-6-[[4-(5-methyl-4-piperazin-1-yl-pyrimidin-2-yl)piperazin-1-yl]methyl]morpholin-4-yl]quinoline-8-carbonitrile] | 80 nM |
| [2H]c1ccc2c(N3C[C@H](CN4CC(c5ccc(N6C[C@@H](N)[C@H](OC)C6)nc5)C4)O[C@H](C)C3)ccc(C#N)c2n1 [Example 149, 5-[(2S,6R)-2-[[3-[6-[(3R,4R)-3-amino-4-methoxy-pyrrolidin-1-yl]-3-pyridyl]azetidin-1-yl]methyl]-6-methyl-morpholin-4-yl]-2-deuterio-quinoline-8-carbonitrile] | 68 nM |
| C[C@@H]1CN(c2ccc(C#N)n3ncc(F)c23)C[C@H](CN2CC(c3ccc(N4CC(C)(N)C4)nc3)C2)O1 [Example 158, 4-[(2S,6R)-2-[[3-[6-(3-amino-3-methyl-azetidin-1-yl)-3-pyridyl]azetidin-1-yl]methyl]-6-methyl-morpholin-4-yl]-3-fluoro-pyrazolo[1,5-a]pyridine-7-carbonitrile] | 41 nM |
| CO[C@H]1CN(c2cc(C)nc(N3CCN(C[C@H]4CN(c5ccc(C#N)c6nccnc56)C[C@@H](C)O4)CC3)n2)C[C@H]1N [Example 122, 8-[(2S,6R)-2-[[4-[4-[(3R,4S)-3-amino-4-methoxy-pyrrolidin-1-yl]-6-methyl-pyrimidin-2-yl]piperazin-1-yl]methyl]-6-methyl-morpholin-4-yl]quinoxaline-5-carbonitrile] | 31 nM |
| [2H]c1ccc2c(N3C[C@H](CN4CC(c5ccc(N6CC(C)(N)C6)nc5)C4)O[C@H](C)C3)ccc(C#N)c2n1 [Example 138, 5-[(2S,6R)-2-[[3-[6-(3-amino-3-methyl-azetidin-1-yl)-3-pyridyl]azetidin-1-yl]methyl]-6-methyl-morpholin-4-yl]-2-deuterio-quinoline-8-carbonitrile] | 40 nM |
| C[C@@H]1CN(c2ccc(C#N)c3ncccc23)C[C@H](CN2CCC(c3cccc(C4CCNCC4)c3)CC2)O1 [Example 2, 5-[(2R,6S)-2-methyl-6-[[4-[3-(4-piperidyl)phenyl]-1-piperidyl]methyl]morpholin-4-yl]quinoline-8-carbonitrile] | 74 nM |
| C[C@@H]1CN(c2ccc(C#N)c3ncccc23)C[C@H](CN2CCN(c3ccnc(N4C[C@H](N)[C@@H](F)C4)n3)CC2)O1 [Example 110, 5-[(2S,6R)-2-[[4-[2-[(3S,4S)-3-amino-4-fluoro-pyrrolidin-1-yl]pyrimidin-4-yl]piperazin-1-yl]methyl]-6-methyl-morpholin-4-yl]quinoline-8-carbonitrile] | 68 nM |
| [2H]c1ccc2c(N3C[C@H](CN4CCN(c5ccc(N6CC7(CNCCO7)C6)nc5)CC4)O[C@H](C)C3)ccc(C#N)c2n1 [Example 152, 2-deuterio-5-[(2R,6S)-2-methyl-6-[[4-[6-(5-oxa-2,8-diazaspiro[3.5]nonan-2-yl)-3-pyridyl]piperazin-1-yl]methyl]morpholin-4-yl]quinoline-8-carbonitrile] | 99 nM |
